# According to ChEMBL document CHEMBL3785045, “Design, syntheses, and anti-tuberculosis activities of conjugates of piperazino-1,3-benzothiazin-4-ones (pBTZs) with 2,7-dimethylimidazo [1,2-a]pyridine-3-carboxylic acids and 7-phenylacetyl cephalosporins” (2016):
# Assays:
# [1] = test system: Mycobacterium tuberculosis; assay: Antimycobacterial activity against Mycobacterium tuberculosis H37Rv cultured in 7H12 medium after 4 days by microplate Alamar blue assay; type: functional; conditions: 96 h
# [2] = test system: Mycobacterium tuberculosis; assay: Antimycobacterial activity against Mycobacterium tuberculosis H37Rv cultured in GAS medium after 4 days by microplate Alamar blue assay; type: functional; conditions: 96 h
# Bacillus subtilis [3] = assay: Antibacterial activity against Bacillus subtilis ATCC 6633; type: functional
# Staphylococcus aureus [4] = assay: Antibacterial activity against Staphylococcus aureus SG511; type: functional
# Micrococcus luteus [5] = assay: Antibacterial activity against Micrococcus luteus ATCC 10240; type: functional
# Staphylococcus aureus [6] = assay: Antibacterial activity against Staphylococcus aureus SG511 assessed as zone of growth inhibition by agar diffusion assay; type: functional
# Micrococcus luteus [7] = assay: Antibacterial activity against Micrococcus luteus ATCC 10240 assessed as zone of growth inhibition by agar diffusion assay; type: functional
# Mycolicibacterium vaccae [8] = assay: Antibacterial activity against Mycobacterium vaccae IMET 10670 assessed as zone of growth inhibition by agar diffusion assay; type: functional
# Mycolicibacterium vaccae [9] = assay: Antibacterial activity against Mycobacterium vaccae IMET 10670; type: functional
# Bacillus subtilis [10] = assay: Antibacterial activity against Bacillus subtilis ATCC 6633 assessed as zone of growth inhibition by agar diffusion assay; type: functional
# Micrococcus luteus [11] = assay: Antibacterial activity against Micrococcus luteus ATCC 10240 assessed as zone of growth inhibition at 1.66 ug/ml by agar diffusion assay; type: functional; conditions: read-out: IZ
# Mycolicibacterium vaccae [12] = assay: Antibacterial activity against Mycobacterium vaccae IMET 10670 assessed as zone of growth inhibition at 1.66 ug/ml by agar diffusion assay; type: functional; conditions: read-out: IZ
# Bacillus subtilis [13] = assay: microbe, parasite or virus in culture; conditions: ATCC 6633, read-out: IZ
# Description: Antibacterial activity against Bacillus subtilis ATCC 6633 assessed as zone of growth inhibition at 1.66 ug/ml by agar diffusion assay
# Staphylococcus aureus [14] = assay: microbe, parasite or virus in culture; conditions: SG511, read-out: IZ
# Description: Antibacterial activity against Staphylococcus aureus SG511 assessed as zone of growth inhibition at 1.66 ug/ml by agar diffusion assay
Compound,MIC [1],MIC [2],MIC (Bacillus subtilis [3]),MIC (Staphylococcus aureus [4]),other results
CC(C)(C)OC(=O)N1CCN(c2nc(=O)c3cc(C(F)(F)F)cc([N+](=O)[O-])c3s2)CC1,0.28 µM,< 0.2 µM,–,–,–
O=C(Cc1ccccc1)N[C@@H]1C(=O)N2C(C(=O)O)=C(CN3CCN(c4cc5c(cc4F)c(=O)c(C(=O)O)cn5C4CC4)CC3)CS[C@H]12,–,–,< 0.1 µM,0.2 µM,MIC (Micrococcus luteus [5]): 3.13 µM
Cc1ccn2c(C(=O)NCCCC(=O)OCc3ccccc3)c(C)nc2c1,5.85 µM,> 10 µM,–,–,–
CC(C)(C)OC(=O)C1=C(COC(=O)OC(Cl)C(Cl)(Cl)Cl)CS[C@@H]2[C@H](NC(=O)Cc3ccccc3)C(=O)N12 (stereo partly specified),> 50 µM,22.2 µM,–,–,–
Cc1ccn2c(C(=O)N3CCN(c4nc(=O)c5cc(C(F)(F)F)cc([N+](=O)[O-])c5s4)CC3)c(C)nc2c1,2.1 µM,1.43 µM,–,–,–
Cc1ccn2c(C(=O)NCCC(=O)OCc3ccccc3)c(C)nc2c1,> 10 µM,> 10 µM,–,–,–
O=C(Cc1ccccc1)N[C@@H]1C(=O)N2C(C(=O)O)=C(COC(=O)N3CCN(c4nc(=O)c5cc(C(F)(F)F)cc([N+](=O)[O-])c5s4)CC3)CS[C@H]12,4.63 µM,12 µM,0.8 µM,12.5 µM,inhibition zone (IZ) (Staphylococcus aureus [6]): 27 mm; inhibition zone (IZ) (Micrococcus luteus [7]): 24 mm; inhibition zone (IZ) (Mycolicibacterium vaccae [8]): 48 mm; MIC (Mycolicibacterium vaccae [9]): 0.2 µM; inhibition zone (IZ) (Bacillus subtilis [10]): 41 mm
O=C(Cc1ccccc1)N[C@@H]1C(=O)N2C(C(=O)O)=C(CN3CCN(c4nc(=O)c5cc(C(F)(F)F)cc([N+](=O)[O-])c5s4)CC3)CS[C@H]12,86.8 µM,48.9 µM,< 0.003 µM,0.4 µM,inhibition zone (IZ) (Staphylococcus aureus [6]): 32 mm; inhibition zone (IZ) (Micrococcus luteus [7]): 48 mm; inhibition zone (IZ) (Mycolicibacterium vaccae [8]): 33 mm; MIC (Micrococcus luteus [5]): 1.56 µM; MIC (Mycolicibacterium vaccae [9]): 12.5 µM; inhibition zone (IZ) (Bacillus subtilis [10]): 41 mm
COc1ccc(COC(=O)C2=C(CN3CCN(c4nc(=O)c5cc(C(F)(F)F)cc([N+](=O)[O-])c5s4)CC3)CS[C@@H]3[C@H](NC(=O)Cc4ccccc4)C(=O)N23)cc1,> 100 µM,> 100 µM,0.1 µM,1.56 µM,inhibition zone (IZ) (Staphylococcus aureus [6]): 37 mm; inhibition zone (IZ) (Micrococcus luteus [7]): 24 mm; inhibition zone (IZ) (Mycolicibacterium vaccae [8]): 24 mm; inhibition zone (IZ) (Bacillus subtilis [10]): 36 mm
Cc1ccn2c(C(=O)NCCCC(=O)N3CCN(c4nc(=O)c5cc(C(F)(F)F)cc([N+](=O)[O-])c5s4)CC3)c(C)nc2c1,> 10 µM,> 10 µM,–,–,–
Cc1ccn2c(C(=O)NCCC(=O)N3CCN(c4nc(=O)c5cc(C(F)(F)F)cc([N+](=O)[O-])c5s4)CC3)c(C)nc2c1,> 10 µM,> 10 µM,–,–,–
CC(C)(C)OC(=O)C1=C(COC(=O)N2CCN(c3nc(=O)c4cc(C(F)(F)F)cc([N+](=O)[O-])c4s3)CC2)CS[C@@H]2[C@H](NC(=O)Cc3ccccc3)C(=O)N12,1.49 µM,63.5 µM,–,–,–
Cc1ccn2c(C(=O)NCc3ccc(C(=O)OCc4ccccc4)cc3)c(C)nc2c1,0.21 µM,4.1 µM,–,–,–
Cc1ccn2c(C(=O)NCc3ccc(C(=O)N4CCN(c5nc(=O)c6cc(C(F)(F)F)cc([N+](=O)[O-])c6s5)CC4)cc3)c(C)nc2c1,> 10 µM,> 10 µM,–,–,–
CC(C)(C)OC(=O)C1=C(CN2CCN(c3nc(=O)c4cc(C(F)(F)F)cc([N+](=O)[O-])c4s3)CC2)CS[C@@H]2[C@H](NC(=O)Cc3ccccc3)C(=O)N12,2.03 µM,1.51 µM,1.56 µM,12.5 µM,inhibition zone (IZ) (Staphylococcus aureus [6]): 23 mm; inhibition zone (IZ) (Micrococcus luteus [7]): 13 mm; inhibition zone (IZ) (Mycolicibacterium vaccae [8]): 29 mm; MIC (Mycolicibacterium vaccae [9]): 0.8 µM; inhibition zone (IZ) (Bacillus subtilis [10]): 27 mm
C[C@H]1COC2(CCN(c3nc(=O)c4cc(C(F)(F)F)cc([N+](=O)[O-])c4s3)CC2)O1 [BTZ-043],< 0.004 µM,< 0.004 µM,–,> 200 µM,MIC (Micrococcus luteus [5]): > 200 µM; MIC (Mycolicibacterium vaccae [9]): 0.03 µM
O=C(O)c1cn(C2CC2)c2cc(N3CCNCC3)c(F)cc2c1=O [CIPROFLOXACIN],–,–,0.15 µM,–,zone of inhibition at 1.66 µg/mL (Micrococcus luteus [11]): 0 mm; zone of inhibition at 1.66 µg/mL (Mycolicibacterium vaccae [12]): 17 mm; zone of inhibition at 1.66 µg/mL (Bacillus subtilis [13]): 20 mm; zone of inhibition at 1.66 µg/mL (Staphylococcus aureus [14]): 20 mm
CO[C@H]1/C=C/O[C@@]2(C)Oc3c(C)c(O)c4c(O)c(c(/C=N/N5CCN(C)CC5)c(O)c4c3C2=O)NC(=O)/C(C)=C\C=C\[C@H](C)[C@H](O)[C@@H](C)[C@@H](O)[C@@H](C)[C@H](OC(C)=O)[C@@H]1C [RIFAMPIN],0.05 µM,0.04 µM,–,–,–
